A short description of series [1]: Vitamin B12 absorption (plasma PK) after dosing Sprague-Dawley rats. To be noted: male rats. Format: in vivo. As to the method: Tablets with four types of different ingredients were made as follows: (1) 8.8 mg of vitamin B12, 35 mg of SNAC were weighed, thoroughly mixed and made into a tablet for dosing on rat; (2) 8.8 mg of vitamin B12, 35 mg of SNAC and 5 mg of Capmul PG-8 were weighed, thoroughly mixed and made into a tablet; (3) 8.8 mg of vitamin B12, 35 mg of SNAC and 0.9 mg of Providone were weighed, thoroughly mixed and made into a tablet. Each of the four processes was repeated to produce more tablets.
Male Sprague-Dawley rats (325-350 g) were dosed with vitamin B12 intravenously (0.5 mg/kg) alone, or orally with the tablets made in Example 4 at a dose of 50 mg/kg vitamin B12 alone or in combination with SNAC at 200 mg/kg. Blood samples were collected at 0, 3, 10, 20, 30, 60, 120, 240 and 360 minutes post dosing. Plasma samples were analyzed for B12 by RIA. The model independent PK metrics obtained following B12-SNAC combination were compared to those obtained following B12 alone.

A short description of series [2]: Serum cyanocobalamin pharmacokinetics after dosing human subjects. Conditions: healthy male subjects, fasted, single intravenous dose 1 mg cyanocobalamin, 4 subjects. Format: in vivo. As to the method:
Sixteen healthy male subjects were randomized to receive one of the following treatments: • (1) Treatment B: a single oral dose of cyanocobalamin/SNAC (5 mg cyanocobalamin/100 mg SNAC) administered in the fasted state as a tablet. (6 subjects); • (2) Treatment C: a single oral dose of cyanocobalamin alone (5 mg cyanocobalamin, VitaLabs, commercial) administered in the fasted state as a tablet. (6 subjects). • (3) Treatment D: a single intravenous dose of cyanocobalamin (1 mg cyanocobalamin) administered in the fasted state. (4 subjects). Each subject received a 1 mL intravenous injection of a 1 mg/mL (1000 μg/mL) solution resulting in a total dose of 1 mg cyanocobalamin.
The subjects were fasted overnight prior to dosing and had no liquids (including water) consumption for at least one hour before and after dosing. The oral forms of cyanocobalamin/SNAC tablets were administered in a single dose as tablets with 50 mL of plain water. Twenty-five blood samples were drawn for cyanocobalamin analyses at the following time points: within 30 minutes pre-dose and at Minutes 2, 5, 10, 20, 30, 40, 50, and at Hours 1, 1.5, 2, 3, 4, 5, 6, 7, 8, 9, 10, 11, 12, 14, 16, 20 and 24 post-dose.
Pharmacokinetic metrics was obtained following a model independent pharmacokinetic analysis of individual cyanocobalamin concentrations. Descriptive statistics was used to summarize the results.

[3] abbreviates: IV, 0.5 mg/kg vitamin B12, N = 5.
Setting [4] is: PO tablet, 50 mg/kg vitamin B12 (alone or with 200 mg/kg SNAC), N = 5.

Results on 2 substances are retold here after patent publication US8557792B2, “Method of treating vitamin B12 deficiency” (priority 2007, dated 2013).

On to Vitamin B12, for which the “AUC Mean” value turned out to be 65.84 µg·min/mL in series [1] (setting [3]) and 28.72 µg·min/mL in series [1] (setting [4]). Besides, the results for the “Tmax Mean” value in series [1] (setting [3]) and in series [1] (setting [4]) were 4.4 min and 52 min, respectively. Further, the “Cmax Mean” value came to 2150 ng/mL in series [1] (IV, 0.5 mg/kg vitamin B12, plasma B12 by RIA, N = 5) and 140 ng/mL in series [1] (PO tablet, 50 mg/kg vitamin B12 (alone or with 200 mg/kg SNAC), plasma B12 by RIA, N = 5). The “Mean Bioavailability” value in series [1] (PO tablet, 50 mg/kg vitamin B12 (alone or with 200 mg/kg SNAC), versus IV) turned out to be 0.42%.
Turning to cyanocobalamin, in series [2], the “Mean B12 peak concentration (Cmax)” value amounted to 221.287 ± 80.248 ng/mL and the “mean AUClast (0-24)” value is 215.391 ± 44.602 ng·h/mL.
